Measured values from ChEMBL document CHEMBL3301361, “Experimental in vitro DMPK and physicochemical data on a set of publicly disclosed compounds”.
Values after ≈ are worked out from the molar mass of the structure shown.

Assays:
physchem [1] = conditions: pH 7.4 buffer
physchem [2] = conditions: octan-1-ol/water

| Compound | solubility thermodynamic (physchem [1]) [µM] | logD (physchem [2]; pH 7.4) | logD (physchem [2]; pH 7.4, LogD7.4) |
| --- | --- | --- | --- |
| Oc1ccc(-c2ccc(C3(O)CN4CCC3CC4)cc2)cc1 (stereo unspecified) | 436 (≈ 129 µg/mL) | 0.95 |  |
| Cc1cnc(Nc2ccc(OCC(O)CN(C)C)cc2)nc1Nc1ccccc1 (stereo unspecified) | 724 (≈ 285 µg/mL) |  | 2 |
| CNC(=O)c1ccc(N2C(=S)N(c3ccc(C#N)c(C(F)(F)F)c3)C(=O)C23CCC3)cc1F | 1.6 (≈ 0.762 µg/mL) | 3.3 |  |
| CN(C)c1cccc2c(S(N)(=O)=O)cccc12 | 23.4 (≈ 5.86 µg/mL) |  | 1.95 |
| Nc1ncc(-c2cnn(C3CCNCC3)c2)cc1-c1nc2ccccc2o1 | 2.3 (≈ 0.829 µg/mL) |  | 1.85 |
| COc1ccc(-c2cc3c(N[C@H]4CCCNC4)ncc(C(N)=O)c3s2)cc1 | 1050 (≈ 401 µg/mL) |  | 1.82 |
| CC(=O)c1noc(C)c1C(=O)Nc1nccs1 | 46.8 (≈ 11.8 µg/mL) |  | 1.94 |
| N#Cc1nc(N2CCOCC2)nc(N2CCOCC2)n1 | 77.6 (≈ 21.4 µg/mL) | 1.51 |  |
| CC(=O)Nc1nc(-c2cccs2)cs1 | 100 (≈ 22.4 µg/mL) | 2.77 |  |
| O=S(=O)(Nc1ccc(S(=O)(=O)Nc2nccs2)cc1)c1ccc2c(c1)OCCO2 | 0.7 (≈ 0.317 µg/mL) |  | 1.97 |
| CC(=O)Nc1nc(-c2ccccc2)ns1 | 182 (≈ 39.9 µg/mL) | 2.8 |  |
| Nc1nccc(/C=C/c2ccc(Cl)cc2)n1 | 8.7 (≈ 2.02 µg/mL) | 3.5 |  |
| CSc1ccc(C(=O)C(C)(C)N2CCOCC2)cc1 | 52.5 (≈ 14.7 µg/mL) | 3.49 |  |
| Cc1cc(=O)oc2cc3c(cc12)CCCN3 | 13.8 (≈ 2.97 µg/mL) | 2.7 |  |
| FC(F)(F)c1nnc2ccc(NCc3cccnc3)nn12 | 380 (≈ 112 µg/mL) |  | 2.06 |
| CC(C)(C)c1cc2nc3c(c(O)n2n1)CN(Cc1ccccc1)C3=O | 25.1 (≈ 8.44 µg/mL) |  | 1.9 |
| CCN(CC)c1ncnc2c1ncn2Cc1c(Cl)cccc1Cl | 2.3 (≈ 0.806 µg/mL) | 1.25 |  |
| CCc1cccc2c(C#N)cn(CC(=O)NCCOC)c12 | 37.2 (≈ 10.6 µg/mL) |  | 1.95 |
| CCn1c2ccccc2c2cc(NC(C)=O)ccc21 | 5.6 (≈ 1.41 µg/mL) | 3.5 |  |
| Cc1ccnc2nc(C(=O)Nc3nccs3)nn12 | 339 (≈ 88.2 µg/mL) | 0.31 |  |
| CCn1c(SCC(=O)Nc2c(C#N)cnn2-c2ccccc2)nnc1-c1cccs1 | 14.1 (≈ 6.14 µg/mL) |  | 2.1 |
| O=C(NCc1ccncc1)c1ccc(Oc2ccc(C#C[C@]3(O)CN4CCC3CC4)cc2)cc1 | 302 (≈ 137 µg/mL) | 2.42 |  |
| Cc1ccn2c(NC(=O)c3ccccc3)c(-c3cccs3)nc2c1 | 1.1 (≈ 0.367 µg/mL) | 2.87 |  |
| Nc1cc(-c2ccccc2)ncn1 | 372 (≈ 63.6 µg/mL) |  | 1.91 |

| Compound | solubility thermodynamic (physchem [1]) [µM] | logD (physchem [2]; pH 7.4) | logD (physchem [2]; pH 7.4, LogD7.4) |
| --- | --- | --- | --- |
| O=C(NCc1ccncc1)c1ccc(Oc2ccc(C#CC3(O)CN4CCC3CC4)cc2)cc1 (stereo unspecified) | 269 (≈ 122 µg/mL) | 2.48 |  |
| O=C(NCc1ccncc1)c1ccc(Oc2ccc(C#C[C@@]3(O)CN4CCC3CC4)cc2)cc1 | 107 (≈ 48.6 µg/mL) | 2.31 |  |
| CS(=O)(=O)c1ccc(Oc2ccc(C#C[C@]3(O)CN4CCC3CC4)cc2)cc1 | 457 (≈ 182 µg/mL) | 1.51 |  |
| O=C(NC1CCCS(=O)(=O)C1)c1ccc(Oc2ccc(C#C[C@]3(O)CN4CCC3CC4)cc2)cc1 (stereo partly specified) | 162 (≈ 80.2 µg/mL) | 1.4 |  |
| O=C(Nc1nc2c(=O)[nH]cnc2s1)c1ccccc1 | 7.4 (≈ 2.01 µg/mL) |  | 1.94 |
| Cc1cc(S(=O)(=O)Nc2nc(Nc3ccc(Cl)cc3)n[nH]2)c(S)cc1Cl | 87.1 (≈ 37.5 µg/mL) |  | 2.09 |
| Cc1ccc(C(=O)Nc2ccon2)cc1-n1cnc2ccc(N3CCN(C)CC3)cc2c1=O | 57.5 (≈ 25.6 µg/mL) |  | 1.87 |
| Cc1cc(CNc2nccc(Nc3cc(C)[nH]n3)n2)on1 | 813 (≈ 232 µg/mL) |  | 1.86 |
| COc1ccc(-c2csc(NC(=O)c3c(C)noc3C)n2)cc1OC | 2 (≈ 0.719 µg/mL) | 3.16 |  |
| CCN(CCO)CCCOc1cc2ncnc(Nc3cc(CC(=O)Nc4cccc(F)c4F)[nH]n3)c2cc1OC | 3 (≈ 1.67 µg/mL) |  | 1.94 |
| O=C(Cc1cc(Nc2ncnc3cc(OCCCN4CCC[C@@H]4CO)ccc23)n[nH]1)Nc1cccc(F)c1F | 141 (≈ 76 µg/mL) |  | 2.06 |
| CC1(c2nc(N3CCOCC3)ncc2C(=O)N[C@H]2C3CC4CC2C[C@](O)(C4)C3)CC1 | 407 (≈ 168 µg/mL) |  | 2 |
| CCN(CCN(C)C)S(=O)(=O)c1ccc(-c2cnc(N)c(C(=O)Nc3cccnc3)n2)cc1 | 490 (≈ 230 µg/mL) |  | 2 |
| Cc1nc(C)c(-c2ccc3c(c2)CC[C@]32CC[C@@H](Cc3nnn[nH]3)CC2)nc1C(N)=O | 77.6 (≈ 32.4 µg/mL) |  | 2 |
| COc1ccc(C(=O)CS(=O)(=O)c2ccccc2)cc1 | 53.7 (≈ 15.6 µg/mL) |  | 1.96 |
| c1nc(N2CCCCC2)c2nc[nH]c2n1 | 501 (≈ 102 µg/mL) |  | 1.84 |
| CC12CCC(=O)C=C1CCC1C2CCC2(C)C(O)CCC12 (stereo unspecified) | 40.7 (≈ 11.7 µg/mL) | 3.3 |  |
| O=C(O)c1ccccc1Cn1nnc(-c2cccc(OCc3ccc4ccccc4n3)c2)n1 | 7.8 (≈ 3.41 µg/mL) |  | 2.1 |
| COc1cc(C(=O)O)ccc1Cn1ccc2ccc(NC(=O)OC3CCCC3)cc21 | 186 (≈ 76.1 µg/mL) |  | 2.1 |
| Oc1cc(-c2ccccc2)nc2ccnn12 | 813 (≈ 172 µg/mL) | 1.3 |  |
| CS(=O)(=O)Nc1cccc(NC(=O)CN2CCN(C(=O)C[C@H](N)Cc3ccc(F)c(F)c3)[C@H](Cc3ccccc3)C2)c1 | 661 (≈ 396 µg/mL) |  | 2.06 |
| O=C(CS(=O)(=O)c1ccccc1)c1ccccc1 | 234 (≈ 61 µg/mL) |  | 1.86 |
| COc1cc2c(Nc3cc(CC(=O)Nc4cccc(F)c4F)[nH]n3)ncnc2cc1OCCCN1CCC[C@@H]1CO | 813 (≈ 461 µg/mL) |  | 1.96 |
| Cc1c(Cl)cccc1S(=O)(=O)Nc1nc(CC(=O)N2CCN(C)CC2)cs1 | 1100 (≈ 470 µg/mL) | 0.57 |  |

| Compound | solubility thermodynamic (physchem [1]) [µM] | logD (physchem [2]; pH 7.4) | logD (physchem [2]; pH 7.4, LogD7.4) |
| --- | --- | --- | --- |
| Cc1nc(C)c(C(=O)N[C@@H](Cc2cccc(Cl)c2)C(=O)NCC#N)s1 | 57.5 (≈ 21.7 µg/mL) |  | 2 |
| Cc1nc(-c2ccccc2)c(-c2ccc(CN3CCC(n4c(=O)[nH]c5ccccc54)CC3)cc2)[nH]c1=O | 27.5 (≈ 13.5 µg/mL) | 3.9 |  |
| CCS(=O)(=O)c1ccc(Oc2cc3nc(-c4ccccn4)[nH]c3cc2CN2C(=O)CCC2=O)cc1 | 30.2 (≈ 14.8 µg/mL) |  | 2 |
| CNC(=O)c1c(-c2ccc(F)cc2)oc2cc(N(CCO)S(C)(=O)=O)c(C3CC3)cc12 [NESBUVIR] | 60.3 (≈ 26.9 µg/mL) |  |  |
| Cc1cn(-c2cc(NC(=O)c3ccc(C)c(Nc4nccc(-c5cccnc5)n4)c3)cc(C(F)(F)F)c2)cn1 [NILOTINIB] | 1.1 (≈ 0.582 µg/mL) |  |  |
| COC(=O)C1=C(C#N)NC(C)=C(C(=O)OC(C)C)C1c1cccc([N+](=O)[O-])c1 (stereo unspecified) [NILVADIPINE] | 2.1 (≈ 0.809 µg/mL) |  |  |
| COc1ccc(/C=C\c2cc(OC)c(OC)c(OC)c2)cc1NC(=O)[C@@H](N)CO [OMBRABULIN] | 1510 (≈ 609 µg/mL) |  |  |
| CCOc1cc2ncc(C#N)c(Nc3ccc(F)c(Cl)c3)c2cc1NC(=O)/C=C/CN(C)C [PELITINIB] | 1.5 (≈ 0.702 µg/mL) |  |  |
| c1ccc2c(c1)Nc1ccccc1S2 [PHENOTHIAZINE] | 2.9 (≈ 0.578 µg/mL) |  |  |
| C[C@@H](Nc1ncnc2[nH]c(-c3ccc(O)cc3)cc12)c1ccccc1 [PKI-166] | 28.8 (≈ 9.52 µg/mL) |  |  |
| CC1(C)SCCN(S(=O)(=O)c2ccc(Oc3ccncc3)cc2)[C@H]1C(=O)NO [PRINOMASTAT] | 69.2 (≈ 29.3 µg/mL) |  |  |
| COc1cc(NS(=O)(=O)c2ccc(N)cc2)nc(OC)n1 [SULFADIMETHOXINE] | 1290 (≈ 400 µg/mL) |  |  |
| CNC(=O)c1cc(COc2nnc(Nc3ccc(Cl)cc3)c3ccoc23)ccn1 [TELATINIB] | 0.3 (≈ 0.123 µg/mL) |  |  |
| O=C1NC(=O)C2(CCc3ccccc3C2)N1 (stereo unspecified) [TETRANTOIN] | 224 (≈ 48.4 µg/mL) |  |  |
| O=C1CCC(N2C(=O)c3ccccc3C2=O)C(=O)N1 (stereo unspecified) [THALIDOMIDE] | 155 (≈ 40 µg/mL) |  |  |
| O=C(Nc1ccccc1)Nc1cnns1 [THIDIAZURON] | 178 (≈ 39.2 µg/mL) |  |  |
| Cc1c(Cc2ccc3ccccc3n2)c2cc(F)ccc2n1CC(=O)O [TIMAPIPRANT] | 112 (≈ 39.1 µg/mL) |  |  |
| Cn1cncc1[C@@](N)(c1ccc(Cl)cc1)c1ccc2c(c1)c(-c1cccc(Cl)c1)cc(=O)n2C [TIPIFARNIB] | 9.5 (≈ 4.65 µg/mL) |  |  |
| COc1cc2nccc(Oc3ccc(NC(=O)Nc4cc(C)on4)c(Cl)c3)c2cc1OC [TIVOZANIB] | 9.3 (≈ 4.23 µg/mL) |  |  |
| O=C(CCCCCCC(=O)Nc1ccccc1)NO [VORINOSTAT] | 1230 (≈ 325 µg/mL) |  |  |
| c1ccc2c(c1)Cc1ccccc1O2 [XANTHENE] | 4.4 (≈ 0.802 µg/mL) |  |  |
| O=c1c2ccccc2oc2ccccc12 [XANTHONE] | 20 (≈ 3.92 µg/mL) |  |  |
